Article PMC4865820, “Branched Peptide, B2088, Disrupts the Supramolecular Organization of Lipopolysaccharides and Sensitizes the Gram-negative Bacteria” (Scientific Reports, 2016)
Positions of bridges follow the written chain, without caps; N, C: chain ends. Non-standard residues stand in square brackets, D forms with d. Residues, ends and D or L forms follow the SMILES beside them. Chains are numbered I, II in the order given. *: point of attachment. X1 = CC[C@H](C)CCCCC(=O)*; Dab = NCC[C@H](N)C(=O)O

Assays:
[1] = system: P. aeruginosa ATCC 27853; assay: microbe, parasite or virus in culture; type: cell-based
Outline: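 Peptides two-fold diluted in Mueller-Hinton Broth (0.0976–50 μg/ml final) against 10^5–10^6 CFU/ml inoculum, 37 °C for 24 h with OD600 monitored every 30 min. MIC = lowest concentration with no visible growth; two independent duplicates.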

[2] = system: human corneal epithelial (hTCEpi) cells
From the text: To assess the safety of B2088 as a part of preclinical assessment, we used the xCELLigence system for the real-time analysis of cytotoxicity.

[3] = system: P. aeruginosa ATCC 27853; type: cell-based; settings: for Fractional inhibitory concentration of peptide/PMB, combination with Genta: first number in parenthesis; for Fractional inhibitory concentration of peptide/PMB, combination with Genta / Fractional inhibitory concentration of antibiotic, Genta combination: ATCC 27853; for Fractional inhibitory concentration of antibiotic, Genta combination: second number in parenthesis
Outline: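 Checkerboard combinations of peptide and antibiotic, each 2-fold diluted up to 1× MIC in MHB, were tested against ~10^6 CFU/ml final inoculum. Plates were incubated 24 h at 37 °C, with growth read at OD600. FICI was the sum of the combination-to-alone MIC ratios for each agent, and the lowest FICI from duplicate experiments was reported.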

[4] = system: lipid A; assay: BODIPY TR cadaverine (BC) displacement assay with lipid A; type: binding; settings: 5 mM HEPES pH 7.4; fluorescence ex 580/em 620 nm
From the text: To investigate the interaction of B2088 with LPS, we performed the BODIPY TR cadaverine (BC) displacement assay reported by Wood et al.[22]. The probe binds to the lipid A part of the LPS with moderate affinity and can be displaced by putative LPS-binding molecules. The method was used to probe the affinity of polycationic molecules and LPS binding proteins. First, we determined the affinity of polymyxin B (PMB), a lipopeptide cyclic antibiotic which has a high affinity for LPS. […] Figure 1a,b show the concentration-dependent displacement of LPS/lipid A-bound BC upon addition of B2088. […] To confirm the importance of branching, we determined the BC50 for a linear retrodimer having the amino acid sequence, […] (Fig. 1d). […]
The BC displacement assay was used to determine the ability of each peptide to bind to LPS. […] The maximum fluorescence intensity (Fmax) was determined using a mixture containing 100 μl PMB (50 μg/ml) and 100 μl BC:LPS solution, as PMB is considered the ‘gold standard’ for LPS-sequestering agents. The minimum fluorescence intensity (F0) was measured using 200 μl of BC:LPS mixture to determine the background noise for this experiment. Fluorescence measurements for each peptide (F) were determined using a microplate reader (Model: TECAN Infinite 200, Austria) with excitation and emission wavelengths set at 580 nm and 620 nm respectively. […]

[5] = system: LPS (E. coli serotype 055:B5); settings: ref Torrent et al. [24]; cited from earlier work
From the text: To investigate the interaction of B2088 with LPS, we performed the BODIPY TR cadaverine (BC) displacement assay reported by Wood et al.[22]. The probe binds to the lipid A part of the LPS with moderate affinity and can be displaced by putative LPS-binding molecules. The method was used to probe the affinity of polycationic molecules and LPS binding proteins. First, we determined the affinity of polymyxin B (PMB), a lipopeptide cyclic antibiotic which has a high affinity for LPS.

SMILES | Minimum Inhibitory Concentration against P. aeruginosa ATCC 27853 ([1]; ATCC 27853, 24 h) | Change in CI values with time [2] | Fractional inhibitory concentration of peptide/PMB, combination with Genta [3] | Fractional inhibitory concentration of antibiotic, Genta combination [3] | ED50 (50% displacement of BC dye from lipid A) [4] | Minimum Inhibitory Concentration against P. aeruginosa ATCC 27853 ([1]; MHB, 10^5–10^6 CFU/ml, 37 °C, 24 h, two independent duplicates) | Fractional Inhibitory Concentration Index with Genta ([3]; peptide + gentamicin, P. aeruginosa ATCC 27853) | ED50 (BC displacement from LPS), literature value [5]
CC(C)[C@H](NC(=O)[C@H](CCCCN)NC(=O)[C@H](CCCNC(=N)N)NC(=O)CNC(=O)[C@@H](N)CCCNC(=N)N)C(=O)N[C@H](C(=O)N[C@@H](CCCNC(=N)N)C(=O)N[C@@H](CCCNC(=N)N)C(=O)NCCCC[C@H](NC(=O)[C@H](CCCNC(=N)N)NC(=O)[C@H](CCCNC(=N)N)NC(=O)[C@@H](NC(=O)[C@@H](NC(=O)[C@H](CCCCN)NC(=O)[C@H](CCCNC(=N)N)NC(=O)CNC(=O)[C@@H](N)CCCNC(=N)N)C(C)C)C(C)C)C(=O)N[C@@H](CCCCN)C(=O)O)C(C)C [B2088] (I: H-RGRKVVRRKK-OH / II: H-RGRKVVRR; amide I:9-II:C; N-terminus and C-terminus assumed) | 2.7 µM | significant increase in CI values | (0.25,0.25) | (0.25,0.25) | 700 ± 140 nM |  |  | 
CC[C@H](C)CCCCC(=O)N[C@@H](CCN)C(=O)N[C@H](C(=O)N[C@@H](CCN)C(=O)N[C@H]1CCNC(=O)[C@H]([C@@H](C)O)NC(=O)[C@H](CCN)NC(=O)[C@H](CCN)NC(=O)[C@H](CC(C)C)NC(=O)[C@@H](Cc2ccccc2)NC(=O)[C@H](CCN)NC1=O)[C@@H](C)O [Polymyxin B, polymyxin B, reference compound] (X1-[Dab]T[Dab][Dab][Dab][dF]L[Dab][Dab]T; lactam 4-C (inferred); N-terminus assumed) |  |  | (0.5,0.5) | (0.5,0.5) |  | 0.57 µM | 1.0 | 2500 ± 100 nM
